How the values were obtained:
[1] = system: HCT116 cells; experiment: Cancer cell killing, GI-101 and Pertuzumab, HCT116 with NK cells; assay type: cell-based, human; conditions: GI-101 0.4-100 nM, Pertuzumab 16.9 nM, 24 hours
Excerpt: This experiment was to evaluate the effect of killing cancer cells by treating HCT116 cells (human colon cancer cells) with the test substance GI-101 alone or in combination with Pertuzumab substance in an in vitro environment.
HCT116 cells were purchased from the Korea cell line bank and cultured in McCoy's 5A medium (ATCC) containing 10% FBS (Gibco) and 1% antibiotic/antifungal agent (Gibco). For use in cancer cell killing test, the cells were harvested using trypsin (Gibco), and then suspended in McCoy's 5A medium, and then dead cells and debris were removed using Ficoll (GE Healthcare Life Sciences) solution. The cells suspended in McCoy's 5A medium were carefully layered on ficoll solution. […]
In order to identify the effect of killing the cells, a CytoTox Green reagent ([…]™ CytoTox Green, Satorius) that binds to the DNA of cells to be killed was prepared in 1 μl per 1 mL of RPMI1640 medium containing 5% human AB serum (Sigma). The prepared medium was used for dilution of the test substance, and the effect of killing the cells could be quantitatively identified by staining the cells to be killed when the test substance was co-cultured with cancer cell lines and PBMCs. […]

[2] = system: CT-26 cancer cell line; experiment: mGI101 in mice transplanted with CT-26 (Exp. Ex. 15)
Method: BALB/c mice (female, 7-week-old) purchased from Orient Bio were subjected to an acclimation period of 7 days. Then, 5×10^6 cells of CT-26 cancer cell line (ATCC, USA) were mixed with 0.05 ml of […] ™ matrix phenol red-free (BD), and allotransplantation of the mixture was performed by subcutaneous administration at 0.1 ml in the right dorsal region of the mice. A certain period of time after the cancer cell transplantation, the tumor volume was measured and subjects that reached about 28 mm^3 were selected, and then the selected mice were grouped evenly based on tumor size and body weight, each group including 10 mice. Thereafter, using a disposable syringe (31G, 1 ml), hIgG4 was administered at a dose of 6 mg/kg to a negative control. For experimental groups, mGI101 at a dose of 3 mg/kg, 6 mg/kg, or 12 mg/kg was administered intravenously thereto. A total of three administrations were given once every three days after the first administration. The tumor size was measured daily.

[3] = system: TC1 cells; experiment: mGI-101, Cisplatin, Pemetrexed and anti-PD-1 antibody, 1st line and maintenance therapy, TC1 tumor model; assay type: in vivo, C57BL/6 mice; conditions: mGI-101 3 mg/kg i.p. QW; compared with anticancer chemotherapeutic agent and anti-PD-1 antibody
Method: Mouse-derived lung cancer cell line, TC1, was purchased from ATCC (USA) and used for the test.
TC1 cells were cultured in RPMI1640 medium (Gibco) containing 10% FBS (Gibco) and 1% antibiotic/antifungal agent (Gibco). The cultured cells were harvested using trypsin (Gibco), and then 1×10^6 of TC1 cells were subcutaneously injected into the right flank of C57BL/6 female mice (7-week-old) in order to establish an allotransplanted tumor model.
The mice were randomly assigned based on tumor volume (˜100 mm^3), each group including 13 to 19 mice. The tumor grafts were identified about day 2 after cell inoculation.
The test was divided into the 1st line treatment and the anticancer maintenance therapy. […]
Clinical symptoms such as a disease and a behavioral change were observed once a day during the test period, and deceased animals were identified, and the mice were sacrificed when the tumor size reached a size of 4,000 mm^3. The size of the TC1 solid cancer was measured using a tumor 3D scanner (TM900, Peria, Belgium). […] The anti-tumor efficacy was evaluated as compared with the mouse IgG4 control. […]

## GI101: fusion protein: human CD80 fragment, Ig hinge, Fc domain, linker, IL-2 variant (2M) (R38A, F42A); SEQ ID NO: 9
[1]
  effect of killing cancer cells: excellent effect of killing cancer cells

## mGI101: fusion protein: mouse CD80, Ig hinge, Fc domain, linker, IL-2 variant (2M) (R38A, F42A); SEQ ID NO: 15
[2]; 6 mg/kg and 12 mg/kg i.v., three administrations, vs negative control (hIgG4)
  Tumor growth inhibition: significant tumor growth inhibition
[2]; 6 mg/kg i.v., vs negative control
  survival rate: significant improvement
[3]
  anticancer effect, anticancer maintenance therapy: as much anticancer effect as the group having received an anticancer chemotherapeutic agent and an anti-PD-1 antibody

From patent US11857601B2, “Pharmaceutical composition for cancer treatment comprising fusion protein including IL-2 protein and CD80 protein and anticancer drug” (GI INNOVATION, INC., priority 2020, dated 2024)
